pIC50, pKd: −log10 of the molar value. Like-named read-outs stand apart in the source and are kept apart here.
Key:
[1] = biological target: GDP-bound KRAS wild-type protein (Homo sapiens, UniProt P01116); assay: Binding to KRAS by surface plasmon resonance (SPR), dissociation constant KD
Outline: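 Compound binding is evaluated by SPR single-cycle kinetics, with concentrations added intermittently from low to high for 75 s each. Target surfaces carry GDP-loaded biotinylated Avi-RAS at about 100–300 RU, regenerated after each cycle; temperature 30°C. A 1:1 binding model gives KD.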

[2] = biological target: GDP-bound NRAS wild-type protein (Homo sapiens, UniProt P01111); assay: Binding to NRAS by surface plasmon resonance (SPR), KD and KD ratio to KRAS
Outline: (§1)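 Biotinylated GDP-bound RAS was captured at about 100–300 RU. Running buffer: HBS pH 7.4, 10 mM MgCl2, 10 µM GDP, 1 mM DTT, 0.01% Tween 20, 4% DMSO.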

HRAS wild-type protein = HRAS wild-type protein (Homo sapiens, UniProt P01112); assay: Binding to HRAS by surface plasmon resonance (SPR), KD and KD ratio to KRAS
Outline: as §1

[3] = tested on: human lung cancer strain NCI-H441; assay: NCI-H441 cell proliferation inhibitory activity (CellTiter-Glo, 4 days); type: cell-based; conditions: read-out: NCl-H441 IC50
Outline: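 Step one: dispense the test compound in serial DMSO dilutions. Step three: add the reagent and measure […].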

[4] = ratio of KD for GDP-bound NRAS wild-type protein to KD for KRAS
[5] = ratio of KD for HRAS wild-type protein to KD for KRAS
[6] = Single Cycle Kinetics, 1:1 binding model
[7] = ratio of KD with respect to GDP-bound NRAS wild-type protein to KD with respect to KRAS
[8] = ratio of KD with respect to HRAS wild-type protein to KD with respect to KRAS
[9] = 50% proliferation inhibitory concentration, four days

GDP-bound NRAS wild-type protein, sequence (P01111 whole entry): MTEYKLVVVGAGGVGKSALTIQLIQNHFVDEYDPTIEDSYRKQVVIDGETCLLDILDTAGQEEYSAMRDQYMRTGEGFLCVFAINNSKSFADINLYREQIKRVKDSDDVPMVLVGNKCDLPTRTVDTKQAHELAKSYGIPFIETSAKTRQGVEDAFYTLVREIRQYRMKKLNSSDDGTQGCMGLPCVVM
HRAS wild-type protein, sequence (P01112 whole entry): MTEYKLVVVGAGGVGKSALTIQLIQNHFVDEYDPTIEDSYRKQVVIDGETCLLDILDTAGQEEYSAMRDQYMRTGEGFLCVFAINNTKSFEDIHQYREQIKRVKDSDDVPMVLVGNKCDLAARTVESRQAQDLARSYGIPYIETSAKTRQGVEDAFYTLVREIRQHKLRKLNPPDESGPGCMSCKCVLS
GDP-bound KRAS wild-type protein, sequence (P01116 1-188 isoform P01116-2): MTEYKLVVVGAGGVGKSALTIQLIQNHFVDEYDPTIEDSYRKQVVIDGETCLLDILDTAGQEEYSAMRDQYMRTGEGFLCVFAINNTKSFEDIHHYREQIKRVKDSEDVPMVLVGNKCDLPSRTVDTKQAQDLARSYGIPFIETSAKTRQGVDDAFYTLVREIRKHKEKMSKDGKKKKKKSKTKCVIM

Row | SMILES | pKd ([1]; Single Cycle Kinetics) | pIC50 ([3]; NCI-H441 cells, 4 days) | pKd [1, 6] | pIC50 [3, 9] | pKd ([1]; 1:1 binding model) | NRAS /KRAS [2, 4] | HRAS /KRAS (HRAS wild-type protein; [5]) | NRAS /KRAS [2, 7] | HRAS /KRAS (HRAS wild-type protein; [8])
1 | CCO[C@@H]1C[C@H]2C(=O)NC3(CCC3)C(=O)N(C)[C@@H](C(CC)CC)C(=O)N(C)[C@H](C(=O)N(C)C)CC(=O)N(C)[C@@H](CC(C)C)C(=O)N[C@@H]([C@@H](C)CC)C(=O)N(C)CC(=O)N(C)[C@H]3C/C=C\CCN(C3=O)[C@@H](Cc3ccc(C(F)(F)F)cc3)C(=O)N(C)CC(=O)N[C@@H](CCc3ccc4sccc4c3)C(=O)N2C1 [PP1225] | – | – | 8.96 | 7.03 | – | – | – | AA (a compound having 20 or more is denoted as AA) | A (a compound having 10 or more and less than 20 is denoted as A)
2 | CCO[C@@H]1C[C@H]2C(=O)NC3(CCC3)C(=O)N(C)[C@@H](C(CC)CC)C(=O)N(C)[C@H](C(=O)N3CCCC3)CC(=O)N(C)[C@@H](COC)C(=O)N[C@@H]([C@@H](C)CC)C(=O)N(C)CC(=O)N(C)[C@H]3C/C=C\CCN(C3=O)[C@@H](CC3CCC(F)(F)CC3)C(=O)N(C)CC(=O)N[C@@H](CCc3cc(F)c(C(F)(F)F)c(F)c3)C(=O)N2C1 [PP1440] | – | – | 9.46 | 7.16 | – | – | – | AA (a compound having 20 or more is denoted as AA) | A (a compound having 10 or more and less than 20 is denoted as A)
3 | CCCOC[C@H]1C(=O)N[C@@H]([C@@H](C)CC)C(=O)N(C)CC(=O)N(C)[C@H]2C/C=C\CCN(C2=O)[C@@H](Cc2ccc(C(F)(F)F)cc2)C(=O)N(C)CC(=O)N[C@@H](CCc2cc(F)c(C(F)(F)F)c(F)c2)C(=O)N2C[C@H](OCC)C[C@H]2C(=O)NC2(CCCC2)C(=O)N(C)[C@@H](C2CCCC2)C(=O)N(C)[C@H](C(=O)N2CCCC2)CC(=O)N1C [PP1399] | – | – | 9.72 | 7.73 | – | – | – | A (a compound having 10 or more and less than 20 is denoted as A) | A (a compound having 10 or more and less than 20 is denoted as A)
4 | CCO[C@@H]1C[C@H]2C(=O)NC3(CCC3)C(=O)N(C)[C@@H](C3CCCC3)C(=O)N(C)[C@H](C(=O)N(C)C)CC(=O)N(C)[C@@H](C)C(=O)N[C@@H]([C@@H](C)CC)C(=O)N(C)CC(=O)N(C)[C@H]3CCCCCN(C3=O)[C@@H](Cc3ccc(F)cc3)C(=O)N(C)CC(=O)N[C@@H](CCc3cc(F)c(C(F)(F)F)c(F)c3)C(=O)N2C1 [PP1189] | – | – | 10.18 | 7.79 | – | – | – | B (a compound having 3 or more and less than 10 is denoted as B) | B (a compound having 3 or more and less than 10 is denoted as B)
5 | CCCOC[C@H]1C(=O)N[C@@H]([C@@H](C)CC)C(=O)N(C)CC(=O)N(C)[C@H]2C/C=C\CCN(C2=O)[C@@H](Cc2ccc(C)cc2)C(=O)N(C)CC(=O)N[C@@H](CCc2ccc(C(F)(F)F)c(OC)c2)C(=O)N2C[C@H](OCC)C[C@H]2C(=O)NC2(CC(C)(C)C2)C(=O)N(C)[C@@H](C2CCCC2)C(=O)N(C)[C@H](C(=O)N(C)C)CC(=O)N1C [PP2449] | – | 8.11 | – | – | 10.21 | A (a compound having 10 or more and less than 20 is denoted as A) | A (a compound having 10 or more and less than 20 is denoted as A) | – | –
6 | CCO[C@@H]1C[C@H]2C(=O)NC3(CCC3)C(=O)N(C)[C@@H](C3CCCC3)C(=O)N(C)[C@H](C(=O)N3CCCC3)CC(=O)N(C)[C@@H](CC3CCC3)C(=O)N[C@@H]([C@@H](C)CC)C(=O)N(C)CC(=O)N(C)[C@H]3C/C=C\CCN(C3=O)[C@@H](Cc3ccc(C)cc3)C(=O)N(C)CC(=O)N[C@@H](CCc3cc(F)c(C(F)(F)F)c(F)c3)C(=O)N2C1 [PP1425] | – | – | 9.62 | 7.69 | – | – | – | A (a compound having 10 or more and less than 20 is denoted as A) | B (a compound having 3 or more and less than 10 is denoted as B)

The next lines start with results.

Row | pKd ([1]; Single Cycle Kinetics) | pIC50 ([3]; NCI-H441 cells, 4 days) | pKd [1, 6] | pIC50 [3, 9] | pKd ([1]; 1:1 binding model) | SMILES | NRAS /KRAS [2, 4] | HRAS /KRAS (HRAS wild-type protein; [5]) | NRAS /KRAS [2, 7] | HRAS /KRAS (HRAS wild-type protein; [8])
7 | 10.07 | 8.44 | – | – | – | C#CC[C@H]1C(=O)N[C@@H]([C@@H](C)CC)C(=O)N2CCC[C@H]2C(=O)N(C)[C@H]2C/C=C\CCN(C2=O)[C@@H](Cc2ccc(C(F)(F)F)cc2)C(=O)N(C)CC(=O)N[C@@H](CCc2ccc(C(F)(F)F)c(Cl)c2)C(=O)N2C[C@H](OCC)C[C@H]2C(=O)N(C)C2(CCC2)C(=O)N(C)[C@@H](C2CCCC2)C(=O)N(C)[C@H](C(=O)N(C)C)CC(=O)N1C [PP3254] | A (a compound having 10 or more and less than 20 is denoted as A) | B (a compound having 3 or more and less than 10 is denoted as B) | – | –
8 | 9.34 | 8.01 | – | – | – | C#CC[C@H]1C(=O)N[C@@H]([C@@H](C)CC)C(=O)N(C)CC(=O)N(C)[C@H]2C/C=C\CCN(C2=O)[C@@H](Cc2ccc(C)cc2)C(=O)N(C)CC(=O)N[C@@H](CCc2ccc(C(F)(F)F)c(OC)c2)C(=O)N2C[C@H](OCC)C[C@H]2C(=O)OC2(CCC2)C(=O)N(C)[C@@H](C2CCCC2)C(=O)N(C)[C@H](C(=O)N(C)C)CC(=O)N1C [PP3391] | B (a compound having 3 or more and less than 10 is denoted as B) | B (a compound having 3 or more and less than 10 is denoted as B) | – | –
9 | 10.19 | 8.10 | – | – | – | CCO[C@@H]1C[C@H]2C(=O)NC3(CC(C)(C)C3)C(=O)N(C)[C@@H](C3CCCC3)C(=O)N(C)[C@H](C(=O)N(C)C)CC(=O)N(C)[C@@H]([C@H](C)OC)C(=O)N[C@@H]([C@@H](C)CC)C(=O)N(C)CC(=O)N(C)[C@H]3C/C=C\CCN(C3=O)[C@@H](Cc3ccc(C(F)(F)F)cc3)C(=O)N(C)CC(=O)N[C@@H](CCc3cc(F)c(C(F)(F)F)c(F)c3)C(=O)N2C1 [PP3169] | A (a compound having 10 or more and less than 20 is denoted as A) | A (a compound having 10 or more and less than 20 is denoted as A) | – | –
10 | – | 6.48 | – | – | 8.37 | CCC[C@H]1C(=O)N[C@@H](CC(C)C)C(=O)N(CC)CC(=O)N(C)[C@H]2C/C=C\CCN(C2=O)[C@@H](Cc2ccc(C)cc2)C(=O)N(C)CC(=O)N[C@@H](CCc2cc(F)c(C(F)(F)F)c(F)c2)C(=O)N2C[C@H](OCC)C[C@H]2C(=O)NC2(CCC2)C(=O)N(C)[C@@H](C2CCCC2)C(=O)N(C)[C@H](C(=O)N(C)C)CC(=O)N1C [PP2539] | A (a compound having 10 or more and less than 20 is denoted as A) | B (a compound having 3 or more and less than 10 is denoted as B) | – | –
11 | 9.25 | 7.95 | – | – | – | CCC[C@H]1C(=O)N[C@@H]([C@@H](C)CC)C(=O)N(C2CC2)CC(=O)N(C)[C@H]2C/C=C\CCN(C2=O)[C@@H](Cc2ccc(C)cc2)C(=O)N(C)CC(=O)N[C@@H](CCc2ccc(C(F)(F)F)c(OC)c2)C(=O)N2C[C@H](OCC)C[C@H]2C(=O)OC2(CCC2)C(=O)N(C)[C@@H](C2CCCC2)C(=O)N(C)[C@H](C(=O)N(C)C)CC(=O)N1C [PP3387] | A (a compound having 10 or more and less than 20 is denoted as A) | B (a compound having 3 or more and less than 10 is denoted as B) | – | –
12 | – | 7.28 | – | – | 9.01 | CCC[C@H]1C(=O)N[C@@H]([C@@H](C)CC)C(=O)N(C)CC(=O)N(C)[C@H]2C/C=C\CCN(C2=O)[C@@H](Cc2ccc(C)cc2)C(=O)N(C)CC(=O)N[C@@H](CCc2ccc(C(F)(F)F)c(OC)c2)C(=O)N2C[C@H](OCC)C[C@H]2C(=O)NC2(CC(C)(C)C2)C(=O)N(C)[C@@H](CC2CCC2)C(=O)N(C)[C@H](C(=O)N(C)C)CC(=O)N1C [PP2753] | A (a compound having 10 or more and less than 20 is denoted as A) | B (a compound having 3 or more and less than 10 is denoted as B) | – | –
13 | 10.52 | 8.59 | – | – | – | C#CC[C@H]1C(=O)N[C@@H]([C@@H](C)CC)C(=O)N(C)CC(=O)N(C)[C@H]2C/C=C\CCN(C2=O)[C@@H](Cc2ccc(C(F)(F)F)cc2)C(=O)N(C)CC(=O)N[C@@H](CCc2ccc(C(F)(F)F)c(OC)c2)C(=O)N2C[C@H](OCC)C[C@H]2C(=O)N(C)C2(CCC2)C(=O)N(C)[C@@H](C2CCCC2)C(=O)N(C)[C@H](C(=O)N(C)C)CC(=O)N1C [PP3230] | A (a compound having 10 or more and less than 20 is denoted as A) | A (a compound having 10 or more and less than 20 is denoted as A) | – | –
14 | – | 7.44 | – | – | 9.36 | CCC(CC)[C@H]1C(=O)N(C)[C@H](C(=O)N(C)C)CC(=O)N(C)[C@@H](COC)C(=O)N[C@@H]([C@@H](C)CC)C(=O)N(C)CC(=O)N(C)[C@H]2C/C=C\CCN(C2=O)[C@@H](Cc2ccc(C(F)(F)F)cc2)C(=O)N(C)CC(=O)N[C@@H](CCc2ccc(Cl)c(Cl)c2)C(=O)N2C[C@H](OC3CCC3)C[C@H]2C(=O)NC2(CC(C)(C)C2)C(=O)N1C [PP2642] | AA (a compound having 20 or more is denoted as AA) | A (a compound having 10 or more and less than 20 is denoted as A) | – | –
15 | 8.77 | 6.83 | – | – | – | CCCO[C@@H]1C[C@H]2C(=O)NC3(CC(C)(C)C3)C(=O)N(C)[C@@H](C3CCCC3)C(=O)N(C)[C@H](C(=O)N(C)CC)CC(=O)N[C@@H](COCC)C(=O)N[C@@H]([C@@H](C)CC)C(=O)N3CCC[C@H]3C(=O)N(C)[C@H]3C/C=C\CCN(C3=O)[C@@H](Cc3ccc(C)cc3)C(=O)N(C)CC(=O)N[C@@H](CCc3ccc(C(F)(F)F)c(OC)c3)C(=O)N2C1 [PP3439] | A (a compound having 10 or more and less than 20 is denoted as A) | A (a compound having 10 or more and less than 20 is denoted as A) | – | –
